The text below walks through data of publication PMC8365602 (Journal of Medicinal Chemistry, 2021).

One series has as its target T1, human recombinant sEH (Homo sapiens, UniProt P34913).
T1 construct: made in house; host or cells: Sf9 insect cells (recombinant baculovirus)
The series is described as follows: sEH activity. Format: biochemical. Here is the method:
Human recombinant sEH was expressed in Sf9 insect cells and purified by affinity chromatography.[83] Briefly, Sf9 cells were infected with a recombinant baculovirus and lysed after 72 h in 50 mM NaHPO4 pH 8, 300 mM NaCl, 10% glycerol, 1 mM EDTA, 1 mM phenylmethanesulfonyl fluoride, 10 μg/mL leupeptin, and 60 μg/mL STI by sonication (3 × 10 s, 4 °C). […] Elution with 4-fluorochalcone oxide in PBS pH 7.4 with 1 mM dithiothreitol and 1 mM EDTA yielded sEH, which was dialyzed and concentrated.
Purified sEH (60 ng) in 25 mM Tris HCl pH 7 with 0.1 mg/mL bovine serum albumin (BSA) was preincubated with the vehicle (DMSO) or 27a for 10 min at room temperature. The sEH substrate PHOME (50 μM, Cayman Chemicals) was added to start the enzymatic reaction, which was stopped after 60 min in darkness by addition of ZnSO4 (200 mM). The formation of the fluorescent product 6-methoxynaphtaldehyde was measured using a NOVOstar fluorescence microplate reader (BMG Labtech, Ortenberg, Germany), with excitation at 330 and emission at 465 nm.

Another series deals with PMNL. The series is described as follows: Intracellular uptake by PMNL. The settings on record: 150 nM for 20 min. Format: cell-based, human. How it is done:
Cells were centrifuged (1200g, 5 min, 4 °C) and washed thrice with PBS pH 7.4 with 0.1% fatty-acid-free BSA (Sigma-Aldrich). Compounds were extracted and analyzed by UPLC-MS/MS as described below for LCMs and derivatives. The intracellular concentrations of 27a and 12a were calculated assuming a spherical cell shape with a diameter of 13 μm (as measured using a Vi-CELL Series Cell Counter, Beckman Coulter, Krefeld, Germany) and an equal intracellular distribution. 13d (9 pmol) was used as the internal standard.

Another series has as its system PBMC. The series is described as follows: PBMC viability (MTT, mitochondrial dehydrogenase activity). In kind it is cell-based, human. As to conditions: ≤1 μM, 24 h. Here is the method:
To measure mitochondrial dehydrogenase activity, 3-(4,5-dimethylthiazol-2-yl)-2,5-diphenyltetrazolium bromide (MTT) (20 μL, 5 mg/mL, Sigma-Aldrich) was added to PBMC. After 4 h in the darkness, the formed formazan product was solubilized (10% SDS in 20 mM HCl) and the absorbance was read at 570 nm using a Multiskan Spectrum microplate reader (Thermo Fisher Scientific).[81]

For another series, the target named is T2, 5-LOX (Homo sapiens, UniProt P09917).
T2 sequence (P09917 1-674): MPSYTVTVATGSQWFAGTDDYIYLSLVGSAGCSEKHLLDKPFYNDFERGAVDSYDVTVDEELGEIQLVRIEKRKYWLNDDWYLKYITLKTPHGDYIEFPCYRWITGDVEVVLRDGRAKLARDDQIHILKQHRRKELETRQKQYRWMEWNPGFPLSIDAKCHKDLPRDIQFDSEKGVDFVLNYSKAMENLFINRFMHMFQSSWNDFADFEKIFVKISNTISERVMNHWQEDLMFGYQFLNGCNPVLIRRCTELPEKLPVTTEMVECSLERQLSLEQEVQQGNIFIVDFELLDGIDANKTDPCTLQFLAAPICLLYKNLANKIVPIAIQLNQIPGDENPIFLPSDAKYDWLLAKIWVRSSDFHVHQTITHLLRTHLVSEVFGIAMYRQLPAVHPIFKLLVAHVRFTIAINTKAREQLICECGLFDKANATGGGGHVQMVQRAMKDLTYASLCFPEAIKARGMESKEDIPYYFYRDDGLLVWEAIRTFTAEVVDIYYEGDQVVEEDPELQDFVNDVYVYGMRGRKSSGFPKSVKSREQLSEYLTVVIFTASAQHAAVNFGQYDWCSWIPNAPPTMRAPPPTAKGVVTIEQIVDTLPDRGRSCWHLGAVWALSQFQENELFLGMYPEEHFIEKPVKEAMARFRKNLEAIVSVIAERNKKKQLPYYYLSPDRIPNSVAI
The series is described as follows: Cell-free 5-LOX activity (isolated human recombinant enzyme).

For another series, the system named is CYP3A4. The experiment in a line: CYP3A4 expression in differentiated HepaRG cells. In kind it is cell-based, human. The settings on record: 48 h. Here is the method: HepaRG cells were seeded at a density of 2.6 × 10^4 cells/cm^2 in Williams’ E medium supplemented with 2 mM GlutaMAX (Thermo Fisher Scientific, Waltham, MA), 100 U/mL penicillin, 100 μg/mL streptomycin, 10% HyClone FCS (Thermo Fisher Scientific), 5 μg/mL insulin, and […] hydrocortisone-hemisuccinate. At confluence after two weeks, HepaRG cells were shifted to a medium supplemented with 1.7% DMSO for two additional weeks to obtain confluent differentiated cultures containing equal proportions of hepatocyte-like and progenitors/primitive biliary-like cells. These differentiated hepatic cell cultures were exposed to the compounds in Williams’ E medium supplemented with 2% FCS plus 0.2% DMSO for 48 h. […]
The assay plate was imaged and analyzed using the Cell Health Profiling BioApplications (HCS Studio Cellomics software Version x.6.4.3 (Build 7207)) on the ArrayScan VTI HCS Reader (Thermo Fisher Scientific—Cellomics, Pittsburgh, PA) using the 20× objective (Zeiss, LD Plan Neofluar 20×/0.4 korr). […]
The CYP3A4 expression was quantified using an arbitrary unit of fluorescent mass representing the combination of intensity and area adjusted to cell number calculated by nuclei counting (Hoechst).

One may read the IC50 as the concentration needed to halve the response being measured.

T1 sequence (P34913 whole entry): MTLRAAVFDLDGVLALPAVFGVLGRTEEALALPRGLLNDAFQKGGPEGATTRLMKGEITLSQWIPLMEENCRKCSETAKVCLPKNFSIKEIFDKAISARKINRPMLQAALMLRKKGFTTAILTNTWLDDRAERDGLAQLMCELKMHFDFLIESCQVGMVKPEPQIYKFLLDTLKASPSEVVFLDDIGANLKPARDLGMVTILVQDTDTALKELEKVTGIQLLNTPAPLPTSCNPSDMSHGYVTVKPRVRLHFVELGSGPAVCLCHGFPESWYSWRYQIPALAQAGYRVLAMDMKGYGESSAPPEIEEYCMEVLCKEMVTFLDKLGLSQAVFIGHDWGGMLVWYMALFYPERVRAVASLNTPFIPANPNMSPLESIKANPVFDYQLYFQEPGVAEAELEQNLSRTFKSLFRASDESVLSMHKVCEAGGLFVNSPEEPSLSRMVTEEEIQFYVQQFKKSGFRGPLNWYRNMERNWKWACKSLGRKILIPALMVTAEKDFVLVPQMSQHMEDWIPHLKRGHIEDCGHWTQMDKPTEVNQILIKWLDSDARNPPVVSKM
Procedure for 5-LOX: Human recombinant 5-LOX was expressed in E. coli Bl21 (DE3) cells that were transformed with pT3–5LOX (wt 5-LOX), 5-LOX_3W (triple mutation of Trp102Ala/Trp13Ala/Trp75Ala), or 5-LOX_R (single mutant of the Arg101Asp plasmid) and purified on an ATP-agarose column (Econo-Pac, Bio-Rad, Hercules, CA) by affinity chromatography.[6],[75]
Purified 5-LOX (0.5 μg in PBS pH 7.4 containing 1 mM EDTA and 1 mM ATP) was preincubated with the vehicle (DMSO) or test compounds for 10 min and prewarmed at 37 °C.

Take `C/C(=C\CC/C(C)=C/CC[C@]1(C)CCc2c(C)c(O)c(C)c(C)c2O1)CCC=C(CO)CO` [Compound 27a, α-amplexichromanol]: the sEH inhibition entry at human recombinant sEH was “not substantially inhibited”. The “Intracellular accumulation in PMNL” value in the series on PMNL is listed as “strongly accumulates in PMNL”. Further, the “Mitochondrial dehydrogenase activity in PBMC (cell viability)” value in the series with PBMC is reported as “impaired neither mitochondrial dehydrogenase activity”. Moreover, on 5-LOX (Triton X-100 (0.01%)), the “Effect of Triton X-100 on 5-LOX inhibition” value was “did not substantially impair 5-LOX inhibition”. The “Dependence of 5-LOX inhibition on substrate (arachidonic acid) concentration” value at 5-LOX (human recombinant 5-LOX) is on record as “independent of the substrate concentration”. Further, at 5-LOX (preincubation 15 min, 10-fold dilution), the “Reversibility of 5-LOX inhibition” value is “reversible”. The IC50 on 5-LOX (read-out: 5-LOX enzyme IC50, isolated human 5-LOX, cell-free, mean ± SEM) was found to be 0.11 ± 0.03 µM. Besides, the remaining activity at 1 µM at 5-LOX (read-out: 5-LOX enzyme residual activity at 1 μM) was 0.1%. Moreover, the “CYP450 enzyme (CYP3A4) expression” value in the series with CYP3A4 is on record as “did not induce CYP450 enzyme expression”.
